According to patent publication US11213542B2, “Method and agent for lowering total cholesterol levels and for improving blood lipid spectrum composition” (BIOGIX, INC., priority 2018, dated 2022):
Where two headings read alike, the source gives them in different places. Marks after values point to notes of the source that are not given here.

Test system: patients with abnormal levels of lipid spectrum
[1] = Visit 1 (baseline), 4000 mg vitamin PP daily for 5 days
[2] = Visit 2 (5 days of supplementation), 4000 mg vitamin PP daily
[3] = Visit 3 (10 days after last dose), 15 days, 4000 mg vitamin PP daily for 5 days
[4] = Visit 4 (30 days after last dose), 35 days, 4000 mg vitamin PP daily for 5 days

Compound: O=C(O)c1cccnc1 [PP, vitamin PP]
- patients dropped out due to side effects (3rd day of the trial): 1 patients
- effect on lipid spectrum (in words) (4000 mg vitamin PP daily, 5 days): quickly lowers TC and LDL, without significantly changing the rest of the lipid spectrum parameters
- patients dropped out due to side effects (4th day of the trial): 3 patients
- patients dropped out due to adverse effects (PP group, 4000 mg vitamin PP daily, 5 days): 12%
- HDL (high density lipoproteins) [1]: 0.98 mmol/L
- LDL (low density lipoproteins) [1]: 3.13 mmol/L
- La (lipoprotein a) [1]: 36.75 mg/dL
- TC (total cholesterol) [1]: 6.77 mmol/L
- TG (triglycerides) [1]: 2.35* mmol/L
- VLDL (very low density lipoproteins) [1]: 1.14 mmol/L
- HDL (high density lipoproteins) [2]: 0.99 mmol/L
- LDL (low density lipoproteins) [2]: 2.58 mmol/L
- La (lipoprotein a) [2]: 38.39 mg/dL
- TC (total cholesterol) [2]: 5.99 mmol/L
- TG (triglycerides) [2]: 2.40 mmol/L
- VLDL (very low density lipoproteins) [2]: 1.11 mmol/L
- HDL (high density lipoproteins) [3]: 0.95 mmol/L
- LDL (low density lipoproteins) [3]: 2.97 mmol/L
- La (lipoprotein a) [3]: 37.40 mg/dL
- TC (total cholesterol) [3]: 6.12 mmol/L
- TG (triglycerides) [3]: 2.33 mmol/L
- VLDL (very low density lipoproteins) [3]: 1.15 mmol/L
- HDL (high density lipoproteins) [4]: 0.99 mmol/L
- LDL (low density lipoproteins) [4]: 3.18 mmol/L
- La (lipoprotein a) [4]: 37.29 mg/dL
- TC (total cholesterol) [4]: 6.81 mmol/L
- TG (triglycerides) [4]: 2.37 mmol/L
- VLDL (very low density lipoproteins) [4]: 1.16 mmol/L
- duration of efficacy (after 5-day course of 4000 mg vitamin PP daily): ≤ 10 days
- patients dropped out due to side effects (second day of the trial): 2 patients
